Consider one compound from patent US8962265B2, “Mutant parasites for use as vaccines and platforms for screening for compounds” (Indiana University Research and Technology Corp., priority 2010, dated 2015).

For the assay, the system named is TgIF2α. Put plainly: Western blot of TgIF2α phosphorylation. The following applies: wild-type parasites treated with the ionophore. The assay is classed as cell-based, Toxoplasma gondii. The protocol:
In order to confirm that the TgIF2α-S71A clone could not be phosphorylated under normal physiological condition, a Western blot of lysates from parasites treated with the ionophore A23187 was carried out using antisera that specifically recognizes TgIF2α which is phosphorylated at ser-71 or total TgIF2α protein (Narasimhan et al., 2008b; Sullivan Jr. et al., 2004b). Referring now to FIG. 1C, equal amounts of protein lysates from WT or TgIF2α-S71A tachyzoites were resolved on a 4-12% polyacrylamide gel and transferred to a membrane for immunoblotting with antibody that specifically recognizes TgIF2α phosphorylated at ser-71 (TgIF2α-P) or total TgIF2α protein. […]
Next addressed was whether TgIF2K-D is required for induced TgIF2α phosphorylation when the parasite is outside of the host cell. Referring now to FIG. 9A, TgIF2α phosphorylation was analyzed by separating cell lysates via denaturing SDS-PAGE, followed by western blotting using antibodies to total TgIF2α or phosphorylated TgIF2α (TgIF2α˜P). […]
Phosphorylation of TgIF2α was monitored by Western blotting performed in accordance with standard methods. […]
Western blot analyses of TgIF2α phosphorylation were carried out as previously described. […] HA-tagged proteins were detected by western blot analyses after resolving parasite lysate on a 3-8% Tris-acetate polyacrylamide gradient gel. […]

In the case of `CNc1ccc2oc(C[C@H]3O[C@@]4(CC[C@H]3C)O[C@H]([C@H](C)C(=O)c3ccc[nH]3)[C@H](C)C[C@H]4C)nc2c1C(=O)O` [A23187], the “induction of TgIF2α phosphorylation” value is reported as “potent inducer”.
